The subject of this test is Influenza A virus. The test is described as follows: microbe, parasite or virus in culture. The settings on record: A/Puerto Rico/8/34, MDCK, 48 h.

From ChEMBL document CHEMBL5505957 (Eur J Med Chem, 2024) come the findings set out here.

For orientation: IC50 means the midpoint of a concentration-inhibition curve. Read a high IC50 as weaker potency in that assay. `Cc1[nH]c(=O)[nH]c(=O)c1CCCc1cn(C2OC(CO)C(O)C2O)nn1` (stereo unspecified) gave an IC50 of 68 µM.
